{"source": "patent US20230015541A1", "about": "“16% Sodium Citrate Solution for Use as an Antimicrobial Catheter Lock Solution” (Becton, Dickinson and Company, priority 2021, published 2023)", "key": {"[1]": {"system": "P. aeruginosa (Gram-negative bacteria)", "assay": "Growth inhibition timeframe at various concentrations of sodium citrate", "format": "cell-based, Pseudomonas aeruginosa", "conditions": "through 24 hours; for growth of P. aeruginosa: pH 6.4-7.5", "method": "FIG. 4 is a table showing growth inhibition timeframe of Gram-negative Pseudomonas aeruginosa exposed to various concentrations of sodium citrate.\n(§1) In vitro testing was conducted with various concentrations of sodium citrate on S. aureus (Gram-positive bacteria) (FIG. 3), P. aeruginosa (Gram-negative bacteria) (FIG. 4), and yeast, C. albicans (FIG. 5). Testing was conducted as set forth in ‘Methods for Dilution Antimicrobial Susceptibility Tests for Bacteria That Grow Aerobically,’ 11th Edition, Clinical and Laboratory Standards Institute (2018), ‘Methods for Determining Bactericidal Activity of Antimicrobial Agents' Approved Guideline.’ Vol. 12, No. 9, Clinical and Laboratory Standards Institute (1999), and ‘Development of In Vitro Susceptibility Testing Criteria and Quality Control Parameters; Approved Guideline-Second Edition,’ Vol. 21, No. 7, Clinical and Laboratory Standards Institute (2001). Briefly, trisodium citrate salt was compounded using purified water and the pH was adjusted, if necessary, with hydrochloric acid to provide a composition with a pH between 6.4 and 7.5. […] Due to this, it is expected that growth inhibition and possibly eradication can occur beyond 24 hours.\nDue to this, it is expected that growth inhibition and possibly eradication can occur beyond 24 hours."}, "yeast": {"system": "yeast", "assay": "MIC determination of sodium citrate by broth microdilution", "format": "cell-based", "conditions": "16% w/v sodium citrate, pH 6.4-7.5; concluded from MICs of FIGS. 2A and 2B", "method": "(§2) In vitro testing was conducted with sodium citrate on samples of various microorganisms to determine a minimum inhibitory concentration (MIC) of sodium citrate (at pH 6.4-7.5) for those microorganisms. […] Testing was performed as set forth in ‘Methods for Dilution Antimicrobial Susceptibility Tests for Bacteria That Grow Aerobically,’ 11th Edition, Clinical and Laboratory Standards Institute (2018), ‘Methods for Determining Bactericidal Activity of Antimicrobial Agents' Approved Guideline.’ Vol. 12, No. 9, Clinical and Laboratory Standards Institute (1999), and ‘Development of In Vitro Susceptibility Testing Criteria and Quality Control Parameters; Approved Guideline-Second Edition,’ Vol. 21, No. 7, Clinical and Laboratory Standards Institute (2001).\n(§3) For MIC determinations, sodium citrate was reconstituted and diluted to various working stock concentrations (8%, 10%, 12%, 14%, 16%, 20%, 24%, and 28% in deionized water and transferred into round-bottom 96-well microdilution plates. Three strains each of Gram-positive bacteria, Gram-negative bacteria, and yeast were obtained from the American Tissue Type Collection (ATCC) or the Centers for Disease Control Antibiotic Resistant (CDC AR) Isolate Bank. Cultures were grown on Trypticase Soy Agar (TSA, for bacteria) or Sabouraud Dextrose Agar (SDA, for yeast) and suspended in Mueller Hinton Broth to a final cell density of approximately 5×10^5 CFU/mL during exposure to sodium citrate. Following incubation at 35±2° C. for 24±2 h (bacteria) or 44±4 h (yeast), microdilution plates were visually examined for the presence or inhibition of growth.\n(§4) As will be appreciated, the MIC is shown, thus testing of higher concentrations was deemed unnecessary, because if, for example 4% sodium citrate is the MIC for a given microorganism, then 16% would be at least as effective. Three (3) replicates were run for each bacteria evaluated and four (4) replicates were run for each fungi evaluated, using two (2) different growth media for the fungi. […]"}, "Gram-negative bacteria": {"system": "Gram-negative bacteria", "assay": "MIC determination of sodium citrate by broth microdilution", "format": "cell-based", "conditions": "16% w/v sodium citrate, pH 6.4-7.5; concluded from MICs of FIGS. 2A and 2B", "method": "as §2, §3, §4"}, "Gram-positive bacteria": {"system": "Gram-positive bacteria", "assay": "MIC determination of sodium citrate by broth microdilution", "format": "cell-based", "conditions": "16% w/v sodium citrate, pH 6.4-7.5; concluded from MICs of FIGS. 2A and 2B", "method": "as §2, §3, §4"}, "whole human blood": {"system": "whole human blood", "assay": "Anticoagulation effect in vitro as activated clotting time (ACT), Sonoclot analyzer", "format": "cell-based", "conditions": "4% (w/v), versus controls (no solution and saline)", "method": "The anticoagulation effect of a 4% sodium citrate lock solution was measured in vitro as activated clotting time (ACT) using whole human blood over 2 years. The anticoagulation effectiveness of 4% sodium citrate lock solution on whole blood was determined using the Sonoclot® Coagulation & Platelet Function Analyzer (Sienco Inc., Boulder Colo.), which can calculate the onset of clot formation by monitoring mechanical changes that occur in blood samples during hemostasis. The mechanism is a tubular probe that moves up and down within a blood sample. As the sample progresses through various stages of clotting, electronic circuitry (a transducer) detects increasing resistance. This produces a series of electronic signals that are processed by a microcomputer. The output is the total time of clot formation where the blood is more viscous than initially introduced."}, "yeast, C. albicans": {"system": "yeast, C. albicans", "assay": "Growth inhibition timeframe at various concentrations of sodium citrate", "format": "cell-based, Candida albicans", "conditions": "through 24 hours, pH 6.4-7.5", "method": "FIG. 5 is a table showing growth inhibition timeframe of the fungus Candida albicans exposed to various concentrations of sodium citrate.\nas §1"}, "[2]": {"system": "S. aureus (Gram-positive bacteria)", "assay": "Growth inhibition timeframe at various concentrations of sodium citrate", "format": "cell-based, Staphylococcus aureus", "conditions": "through 24 hours; for growth of S. aureus: pH 6.4-7.5", "method": "FIG. 3 is a table showing growth inhibition timeframe of Gram-positive Staphylococcus aureus exposed to various concentrations of sodium citrate.\nas §1"}}}
{"compound": "O=C([O-])CC(O)(CC(=O)[O-])C(=O)[O-].[Na+].[Na+].[Na+]", "note": "[sodium citrate, trisodium citrate]", "values": [{"measurement": "bacteria count of P. aeruginosa", "setting": "[1]; 10% (w/v)", "result": "decrease"}, {"measurement": "growth of P. aeruginosa", "setting": "[1]; 10% (w/v)", "result": "does not grow"}, {"measurement": "bacteria count of P. aeruginosa", "setting": "[1]; 12% (w/v)", "result": "decrease"}, {"measurement": "growth of P. aeruginosa", "setting": "[1]; 12% (w/v)", "result": "does not grow"}, {"measurement": "bacteria count of P. aeruginosa", "setting": "[1]; 14% (w/v)", "result": "decrease"}, {"measurement": "growth of P. aeruginosa", "setting": "[1]; 14% (w/v)", "result": "does not grow"}, {"measurement": "growth and proliferation of yeast", "setting": "yeast", "result": "will prevent growth and proliferation"}, {"measurement": "growth and proliferation of Gram-negative bacteria", "setting": "Gram-negative bacteria", "result": "will prevent growth and proliferation"}, {"measurement": "growth and proliferation of Gram-positive bacteria", "setting": "Gram-positive bacteria", "result": "will prevent growth and proliferation"}, {"measurement": "time required for clot formation (activated clotting time)", "setting": "whole human blood", "result": "longer relative to the controls"}, {"measurement": "growth of C. albicans", "setting": "yeast, C. albicans; 2% (w/v)", "result": "does not grow"}, {"measurement": "growth of C. albicans", "setting": "yeast, C. albicans; 4% (w/v)", "result": "does not grow"}, {"measurement": "growth of C. albicans", "setting": "yeast, C. albicans; 6% (w/v)", "result": "does not grow"}, {"measurement": "bacteria count of S. aureus", "setting": "[2]; 6% (w/v)", "result": "decrease"}, {"measurement": "growth of S. aureus", "setting": "[2]; 6% (w/v)", "result": "does not grow"}, {"measurement": "bacteria count of S. aureus", "setting": "[2]; 8% (w/v)", "result": "decrease"}, {"measurement": "growth of S. aureus", "setting": "[2]; 8% (w/v)", "result": "does not grow"}, {"measurement": "bacteria count of S. aureus", "setting": "[2]; 10% (w/v)", "result": "decrease"}, {"measurement": "growth of S. aureus", "setting": "[2]; 10% (w/v)", "result": "does not grow"}]}
